# Tests used:
# NIO mice (Balb/C) = test: acute toxicity in normal NIO mice; assay type: in vivo, mouse; conditions: single-dose 300 mg/kg DFO equiv or 100 mg/kg DFO equiv every 2 days x6, tail-vein, 14 days
# Protocol: Normal NIO mice (Balb/C, Female, 6 weeks old), randomly divided into 7 groups (n=6), were treated with saline, single-dose (300 mg/kg DFO equiv) or multiple-dose (100 mg/kg DFO equiv every 2 days, six doses total) regimens of DFO, rPR-DFO, and rPR-OH (same concentrations as rPR-DFO based on w/v) via tail-vein injections (10 μL/g). Mice were monitored for 14 days for signs of acute toxicity based on body weight loss, changes in appetite, and changes in behavior such as altered gait and lethargy. The body weights of the mice were recorded every other day over the course of the study. Mice were euthanized by CO2 overdose on the 14th day. The lungs, heart, spleen, kidneys, brain and liver of animals were subsequently harvested, rinsed with fresh PBS, blotted dry with Whatman filter paper, and then weighed (note that organ weight is reported as mg of total organ weight per g of animal bw, mg/g). […] Mice also behaved normally and no changes in appetite were noted.
# [1] = in humans; cited from earlier work
# [2] = system: NIO J774A.1 macrophage cells; test: in vitro cytotoxicity, resazurin assay, NIO cells; assay type: cell-based; conditions: Mus musculus, J774.A1, 48 h, rPR-DFO at equivalent DFO concentrations, read-out: concentration inhibiting 50% cell viability
# Protocol: Briefly, both NIO and IO J774A.1 macrophage cells were seeded in 96-well plates at a density of 3,000 cells/well, cultured at 37° C., 5% CO2 and 100% humidity with DMEM complete medium for 24 h. Cells were then treated with 1 mM free DFO or rPR-DFO at equivalent DFO concentrations (prepared by 1:3 serial dilutions) for 48 h; equivalent rPR-OH based on w/v to rPR-DFO concentrations was also investigated. Next, the substrate resazurin was dissolved in cell culture medium at a concentration of 44 μM, added to each well (100 μl), and incubated at 37° C. for 4 h. The fluorescence change was monitored by exciting at 560 nm and measuring emission at 590 nm with a SpectraMax Gemini EM microplate reader. Readings from wells without cells were used as Eblank, and the readings from control cells without treatment (Econtrol) represented 100% cell viability. The viability of treated cells was calculated by the following equation:
smiles,measurement,setting,value
"CC(=O)N(O)CCCCCNC(=O)CCC(=O)N(O)CCCCCNC(=O)CCC(=O)N(O)CCCCCN [DFO, Deferoxamine]",acute toxicity based on body weights and organ weights,NIO mice (Balb/C),no apparent evidence of acute toxicity
same,half-life (blood circulation),[1],ca. 20 min
same,IC50,[2],~10 µM

# Reference: patent US20210008220A1, “PHARMACEUTICAL COMPOSITIONS CONTAINING POLYROTAXANES” (UNIVERSITY OF GEORGIA RESEARCH FOUNDATION, INC., priority 2018, published 2021)
